Measurements reported in patent publication US11780851B2, “LRRK2 inhibitors” (H. Lundbeck A/S, priority 2021, dated 2023).

Columns and labels:
[1] = biological target: T1, LRRK2 WT (Homo sapiens, UniProt Q5S007); experiment: LRRK2 wild-type kinase activity assay (LanthaScreen TR-FRET); assay type: biochemical; details: 1 nM LRRK2 WT, 1.3 mM ATP, 3.5 h at 30° C.; n≥2 tests
T1 construct: comprises residue 970 to 2527 of the full length human wild-type LRRK2 kinase; purchased Invitrogen (Life Technologies Corporation)
Procedure: (§1) LRRK2 kinase activity was measured using a LanthaScreen kinase activity assay available from Invitrogen (Life Technologies Corporation). The assay is a homogeneous time resolved-fluorescence resonance energy transfer (TR-FRET) assay that measures phosphorylation of a fluorescein-labelled peptide substrate Fluorescein-ERM LRRKtide obtainable from Life Technologies Corporation as a result of LRRK2 kinase activity. The phosphorylated peptide is recognized by a terbium-labelled phospho-specific anti-LRRKtide antibody (pLRRKtide antibody), obtainable from Life Technologies Corporation and, subsequently, the phosphorylated LRRKtide can be quantified by the extent of TR-FRET between the terbium donor and fluorescein acceptor. The LRRK2 kinase was obtained from Invitrogen (Life Technologies Corporation) and comprises residue 970 to 2527 of the full length human wild-type LRRK2 kinase, or a similar sequence with the G2019S mutation. As discussed above, this mutation increases the kinase activity relative to the wild type. The kinase reactions were performed in a 20 μL volume in 384-well plates. […] The mixture was further incubated for 30 minutes at RT. […] The measurement was repeated 30 times for fluorescein and 30 times for terbium emission with a 1000 μs time window between repeats. TR-FRET measurements were performed on a Biotek Synergy plate. The TR-FRET signal was calculated as the emission-ratio at 520 nm over 495 nm. The TR-FRET ratio readout for test compounds was normalized to 0% inhibition corresponding to TR-FRET ratio measured in control wells with no inhibition of the kinase activity and 100% inhibition corresponding to TR-FRET ratio measured in control wells with inhibitor. […] C is the IC50 value and D is the Hill slope coefficient. IC50 estimates were obtained from independent experiment and the logarithmic average was calculated.

[2] = biological target: T2, LRRK2 G2019S (Homo sapiens, UniProt Q5S007, G2019S); experiment: LRRK2 G2019S kinase activity assay (LanthaScreen TR-FRET); assay type: biochemical; details: 250 pM LRRK2 G2019S, 1.3 mM ATP, 3 h at 30° C.; n≥2 tests
T2 construct: purchased Invitrogen (Life Technologies Corporation)
Procedure: as §1

T1 sequence (Q5S007 970-2527): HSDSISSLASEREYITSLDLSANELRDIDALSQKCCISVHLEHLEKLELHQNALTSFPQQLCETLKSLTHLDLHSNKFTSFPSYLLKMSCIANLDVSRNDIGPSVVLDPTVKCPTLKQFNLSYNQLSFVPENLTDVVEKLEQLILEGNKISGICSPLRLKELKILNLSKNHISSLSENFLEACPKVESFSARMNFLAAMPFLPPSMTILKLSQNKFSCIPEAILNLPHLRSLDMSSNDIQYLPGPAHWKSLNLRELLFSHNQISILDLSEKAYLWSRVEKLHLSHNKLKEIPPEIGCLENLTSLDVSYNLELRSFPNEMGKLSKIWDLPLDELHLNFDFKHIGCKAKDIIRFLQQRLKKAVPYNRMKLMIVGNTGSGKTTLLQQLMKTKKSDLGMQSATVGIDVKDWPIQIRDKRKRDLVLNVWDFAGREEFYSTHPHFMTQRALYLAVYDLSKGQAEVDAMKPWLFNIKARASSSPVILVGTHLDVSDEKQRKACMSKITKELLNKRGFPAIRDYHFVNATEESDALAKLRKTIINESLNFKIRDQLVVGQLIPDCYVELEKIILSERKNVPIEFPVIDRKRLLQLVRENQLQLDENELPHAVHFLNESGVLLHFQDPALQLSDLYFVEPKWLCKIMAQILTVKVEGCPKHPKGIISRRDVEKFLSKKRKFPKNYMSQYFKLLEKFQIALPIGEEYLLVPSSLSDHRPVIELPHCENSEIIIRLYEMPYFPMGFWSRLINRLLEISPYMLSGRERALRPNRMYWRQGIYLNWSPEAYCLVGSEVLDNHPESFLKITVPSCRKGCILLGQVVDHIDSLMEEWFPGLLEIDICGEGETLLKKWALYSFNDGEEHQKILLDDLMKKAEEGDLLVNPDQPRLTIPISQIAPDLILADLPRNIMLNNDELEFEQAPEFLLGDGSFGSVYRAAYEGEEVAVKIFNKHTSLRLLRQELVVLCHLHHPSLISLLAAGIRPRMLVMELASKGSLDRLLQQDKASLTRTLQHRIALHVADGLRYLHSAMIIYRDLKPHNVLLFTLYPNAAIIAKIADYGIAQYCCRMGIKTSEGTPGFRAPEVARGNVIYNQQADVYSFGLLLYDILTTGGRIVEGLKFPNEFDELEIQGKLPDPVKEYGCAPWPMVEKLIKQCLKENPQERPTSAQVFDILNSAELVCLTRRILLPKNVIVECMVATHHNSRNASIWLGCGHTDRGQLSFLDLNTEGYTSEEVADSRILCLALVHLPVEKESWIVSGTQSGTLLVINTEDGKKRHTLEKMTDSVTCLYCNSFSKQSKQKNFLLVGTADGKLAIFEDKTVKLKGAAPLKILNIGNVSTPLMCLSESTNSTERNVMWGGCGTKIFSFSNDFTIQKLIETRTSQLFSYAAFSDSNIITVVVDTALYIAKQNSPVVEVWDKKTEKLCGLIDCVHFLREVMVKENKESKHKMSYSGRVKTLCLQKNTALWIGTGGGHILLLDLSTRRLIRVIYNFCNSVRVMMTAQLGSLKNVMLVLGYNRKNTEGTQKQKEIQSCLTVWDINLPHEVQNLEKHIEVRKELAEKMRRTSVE
T2 sequence (Q5S007 970-2527 G2019S): as the sequence (Q5S007 970-2527) above, with G1050S counted along it

SMILES | IC50 [1] | IC50 [2]
[2H]C1([2H])CCOc2nn(C3CCOCC3)c(C)c2Nc2ncc3c(Cl)nn1c3n2 [Example 45, 8-Chloro-3-methyl-2-(tetrahydro-2H-pyran-4-yl)-2,4,12,13-tetrahydro-11H-5,7-(azenometheno)dipyrazolo[3,4-b:5′,1′-g][1]oxa[4,6,8]triazacycloundecine-11,11-d2] | 13 nM | 3.6 nM
[2H]C([2H])([2H])c1c2c(nn1[C@@H]1CCOC[C@H]1F)OCCCn1nc(Cl)c3cnc(nc31)N2 (single isomer, unassigned) [Example 63, (+)-8-Chloro-2-((3R,4S) or (3S,4R)-3-fluorotetrahydro-2H-pyran-4-yl)-3-(methyl-d3)-2,4,12,13-tetrahydro-11H-5,7-(azenometheno)dipyrazolo[3,4-b:5′,1′-g][1]oxa[4,6,8]triazacycloundecine] | 11 nM | 4 nM
CCc1c2c(nn1[C@@H]1CCOC[C@H]1F)OCCCn1nc(Cl)c3cnc(nc31)N2 (single isomer, unassigned) [Example 55, (+)-8-Chloro-3-ethyl-2-((3R,4S) or (3S,4R)-3-fluorotetrahydro-2H-pyran-4-yl)-2,4,12,13-tetrahydro-11H-5,7-(azenometheno)dipyrazolo[3,4-b:5′,1′-g][1]oxa[4,6,8]triazacycloundecine] | 5.6 nM | 1.5 nM
Cc1c2c(nn1[C@H]1CCOC[C@]1(C)F)OCCCn1nc(Cl)c3cnc(nc31)N2 (single isomer, unassigned) [Example 48, (−)-8-Chloro-2-((3R,4S) or (3S,4R)-3-Fluoro-3-methyltetrahydro-2H-pyran-4-yl)-3-methyl-2,4,12,13-tetrahydro-11H-5,7-(azenometheno)dipyrazolo[3,4-b:5′,1′-g][1]oxa[4,6,8]triazacycloundecine] | 90 nM | 18 nM
Cc1c2c(nn1CC1CCOCC1)OCCCn1nc(Cl)c3cnc(nc31)N2 [Example 49, 8-Chloro-3-methyl-2-((tetrahydro-2H-pyran-4-yl)methyl)-2,4,12,13-tetrahydro-11H-5,7-(azenometheno)dipyrazolo[3,4-b:5′,1′-g][1]oxa[4,6,8]triazacycloundecine] | 9.4 nM | 4.7 nM
[2H]C1([2H])Oc2nn(C3CCOCC3)c(C)c2Nc2ncc3c(Cl)nn(c3n2)C([2H])([2H])C1([2H])[2H] [Example 20, 8-Chloro-3-methyl-2-(tetrahydro-2H-pyran-4-yl)-2,4,12,13-tetrahydro-11H-5,7-(azenometheno)dipyrazolo[3,4-b:5′,1′-g][1]oxa[4,6,8]triazacycloundecine-11,11,12,12,13,13-d6] | 14 nM | 5.1 nM
Cc1c2c(nn1[C@@H]1CCOC[C@@H]1C)OCCCn1nc(Cl)c3cnc(nc31)N2 (single isomer, unassigned) [Example 22, 8-Chloro-3-methyl-2-((3R,4S) or (3S,4R) or (3S,4S) or (3R,4R)-3-methyltetrahydro-2H-pyran-4-yl)-2,4,12,13-tetrahydro-11H-5,7-(azenometheno)dipyrazolo[3,4-b:5′,1′-g][1]oxa[4,6,8]triazacycloundecine] | 10 nM | 3.5 nM
Cc1c2c(nn1[C@@H]1CCOC[C@@H]1C)OCCCn1nc(Cl)c3cnc(nc31)N2 (single isomer, unassigned) [Example 21, 8-Chloro-3-methyl-2-((3R,4S) or (3S,4R) or (3S,4S) or (3R,4R)-3-methyltetrahydro-2H-pyran-4-yl)-2,4,12,13-tetrahydro-11H-5,7-(azenometheno)dipyrazolo[3,4-b:5′,1′-g][1]oxa[4,6,8]triazacycloundecine] | 10 nM | 3.7 nM
Cc1c2c(nn1[C@H]1CCOC(C)(C)C1)OCCCn1nc(Cl)c3cnc(nc31)N2 (single isomer, unassigned) [Example 43, (−)-(R) or (S)-8-Chloro-2-(2,2-dimethyltetrahydro-2H-pyran-4-yl)-3-methyl-2,4,12,13-tetrahydro-11H-5,7-(azenometheno)dipyrazolo[3,4-b:5′,1′-g][1]oxa[4,6,8]triazacycloundecine] | 17 nM | 5.3 nM
Cc1c2c(nn1[C@@H]1CCOC[C@@H]1C)OCCCn1nc(Cl)c3cnc(nc31)N2 (single isomer, unassigned) [Example 23, 8-Chloro-3-methyl-2-((3R,4S) or (3S,4R) or (3S,4S) or (3R,4R)-3-methyltetrahydro-2H-pyran-4-yl)-2,4,12,13-tetrahydro-11H-5,7-(azenometheno)dipyrazolo[3,4-b:5′,1′-g][1]oxa[4,6,8]triazacycloundecine] | 44 nM | 20 nM
FC1(c2c3c(nn2C2CCOCC2)OCCCn2nc(Cl)c4cnc(nc42)N3)CC1 [Example 16, 8-Chloro-3-(1-fluorocyclopropyl)-2-(tetrahydro-2H-pyran-4-yl)-2,4,12,13-tetrahydro-11H-5,7-(azenometheno)dipyrazolo[3,4-b:5′,1′-g][1]oxa[4,6,8]triazacycloundecine] | 60 nM | 16 nM
[2H]C([2H])([2H])c1c2c(nn1[C@H]1CCOC3(CC3)C1)OCCCn1nc(Cl)c3cnc(nc31)N2 (single isomer, unassigned) [Example 65, (+)-(R) or (S)-8-Chloro-3-(methyl-d3)-2-(4-oxaspiro[2.5]octan-7-yl)-2,4,12,13-tetrahydro-11H-5,7-(azenometheno)dipyrazolo[3,4-b:5′,1′-g][1]oxa[4,6,8]triazacycloundecine] | 4.8 nM | 1.7 nM
Cc1c2c(nn1[C@@H]1CCOC[C@@H]1C)OCCCn1nc(Cl)c3cnc(nc31)N2 (single isomer, unassigned) [Example 24, 8-Chloro-3-methyl-2-((3R,4S) or (3S,4R) or (3S,4S) or (3R,4R)-3-methyltetrahydro-2H-pyran-4-yl)-2,4,12,13-tetrahydro-11H-5,7-(azenometheno)dipyrazolo[3,4-b:5′,1′-g][1]oxa[4,6,8]triazacycloundecine] | 14 nM | 4.7 nM
Cc1c2c(nn1C)OCCCn1nc(Cl)c3cnc(nc31)N2 [Example 1, 8-Chloro-2,3-dimethyl-2,4,12,13-tetrahydro-11H-5,7-(azenometheno)dipyrazolo[3,4-b:5′,1′-g][1]oxa[4,6,8]triazacycloundecine] | 55 nM | 18 nM
Cc1c2c(nn1[C@@H]1CCOC3(CC3)C1)OCCCn1nc(Cl)c3cnc(nc31)N2 (single isomer, unassigned) [Example 54, (−)-(R) or (S)-8-Chloro-3-methyl-2-(4-oxaspiro[2.5]octan-7-yl)-2,4,12,13-tetrahydro-11H-5,7-(azenometheno)dipyrazolo[3,4-b:5′,1′-g][1]oxa[4,6,8]triazacycloundecine] | 2.6 nM | 0.88 nM
Cc1c2c(nn1C1(C#N)CC1)OCCCn1nc(Cl)c3cnc(nc31)N2 [Example 36, 1-(8-Chloro-3-methyl-12,13-dihydro-11H-5,7-(azenometheno)dipyrazolo[3,4-b:5′,1′-g][1]oxa[4,6,8]triazacycloundecin-2(4H)-yl)cyclopropane-1-carbonitrile] | 23 nM | 7.2 nM
Cc1c2c(nn1C1CCOCC1)OCCCn1nc(C#N)c3cnc(nc31)N2 [Example 9, 3-Methyl-2-(tetrahydro-2H-pyran-4-yl)-2,4,12,13-tetrahydro-11H-5,7-(azenometheno)dipyrazolo[3,4-b:5′,1′-g][1]oxa[4,6,8]triazacycloundecine-8-carbonitrile] | 110 nM | 57 nM
CCc1c2c(nn1[C@@H]1CCOC[C@H]1F)OCCCn1nc(Cl)c3cnc(nc31)N2 (single isomer, unassigned) [Example 56, (−)-8-Chloro-3-ethyl-2-((3R,4S) or (3S,4R)-3-fluorotetrahydro-2H-pyran-4-yl)-2,4,12,13-tetrahydro-11H-5,7-(azenometheno)dipyrazolo[3,4-b:5′,1′-g][1]oxa[4,6,8]triazacycloundecine] | 4.9 nM | 2 nM
[2H]C([2H])([2H])c1c2c(nn1C1CCOCC1)OC([2H])([2H])C([2H])([2H])C([2H])([2H])n1nc(Cl)c3cnc(nc31)N2 [Example 35, 8-Chloro-3-(methyl-d3)-2-(tetrahydro-2H-pyran-4-yl)-2,4,12,13-tetrahydro-11H-5,7-(azenometheno)dipyrazolo[3,4-b:5′,1′-g][1]oxa[4,6,8]triazacycloundecine-11,11,12,12,13,13-d6] | 15 nM | 5.3 nM
Cc1c2c(nn1[C@@H]1CC1(F)F)OCCCn1nc(Cl)c3cnc(nc31)N2 (single isomer, unassigned) [Example 39, (−)-(R) or (S)-8-Chloro-2-(2,2-difluorocyclopropyl)-3-methyl-2,4,12,13-tetrahydro-11H-5,7-(azenometheno)dipyrazolo[3,4-b:5′,1′-g][1]oxa[4,6,8]triazacycloundecine] | 19 nM | 7.8 nM
